What was measured:
Format in all cases: functional, Homo sapiens
[1] = 62 Compound was evaluated for enhancing effect on vincristine accumulation in ovarian MDR cancer cells (2780AD) at concentration of 1.0 ug/mL.
[2] = Compound was evaluated for enhancing effect on vincristine accumulation in ovarian MDR cancer cells (2780AD) at concentration of 10 ug/mL.
[3] = Compound was evaluated for enhancing effect on vincristine accumulation in ovarian MDR cancer cells (2780AD) at concentration of 1.0 ug/mL.

Row | Compound | Activity [1] [%] | Activity [2] [%] | Activity [3] [%]
1 | COc1cccc2c1[C@H](O)[C@]1(O)CC(O)C(C)=C([C@@H](Sc3ccccc3)[C@@H]2OCCO)C1(C)C (stereo partly specified) | 109 | 144 | 
2 | COc1cccc2c1[C@H](OCc1ccccc1)[C@]1(O)CC(=O)C(C)=C([C@@H](Sc3ccccc3)[C@@H]2OCCOCc2ccccc2)C1(C)C |  | 211 | 106
3 | CC1=C2[C@@H](Sc3ccccc3)[C@H](OCCO)c3cccc(O)c3[C@H](OCc3ccccc3)[C@](O)(CC1=O)C2(C)C |  | 569 | 238
4 | CC1=C2[C@@H](Sc3ccccc3)[C@H](OCCOCc3ccccc3)c3cccc(O)c3[C@H](OCc3ccccc3)[C@](O)(CC1=O)C2(C)C |  | 142 | 106
5 | COc1cccc2c1[C@H](O)[C@]1(O)CC(=O)C(C)=C([C@@H](Sc3ccccc3)[C@@H]2OCCOCc2ccccc2)C1(C)C |  | 256 | 140
6 | COc1cccc2c1[C@H](O)[C@]1(O)CC(=O)C(C)=C(C[C@@H]2OCCO)C1(C)C |  | 124 | 111
7 | COc1cccc2c1[C@H](O)[C@]1(O)CC(=O)C(C)=C([C@@H](Sc3ccccc3)[C@@H]2OCCO)C1(C)C |  | 171 | 112
8 | COc1cccc2c1[C@H](O)[C@]1(O)CC(=O)C(C)=C([C@@H](Sc3ccccc3)[C@@H]2OCCBr)C1(C)C |  | 166 | 93

Reference: ChEMBL document CHEMBL1130644, “Synthesis of C-ring aromatic taxoids and evaluation of their multi-drug resistance reversing activity” (1998)
